Experimental data published in US20260144882A1, “ANTI-NECTIN-4 ANTIBODY DRUG CONJUGATE AND USE THEREOF” (Bio-Thera Solutions, Ltd., priority 2022, published 2026).
“And” between values parts separate entries of the source, which are not always exact repeats. Equal entries are not always repeated.

Experiments:
T-47D cells = assay: Endocytosis efficiency assay by FACS; assay type: cell-based, human
Description: In this assay, the relative amount of antibodies remaining on the cell surface after co-incubation at 37° C. for a certain period of time was detected by FACS to reflect the endocytosis efficiency. The procedures are briefly described as follows: T-47D cells (human ductal breast cancer cells, derived from the Cell Bank of Chinese Academy of Sciences, Cat.No. TCHu 87); the antibodies of interest were adjusted to 10 µg/mL and co-incubated with the cells on ice for 1 h; the cells were washed 3 times with pre-cooled PBS, and then placed at 37° C. and incubated for 0 h, 2 h and 4 h; 0.2% N3Na was added to stop the endocytosis reaction; the cells were washed with PBS thrice, followed by the addition of the PE-labeled anti-human Fc secondary antibody (Invitrogen 12-4998-82); the cells were incubated at 4° C. for 30 min; the red fluorescence signal was detected on a flow cytometer.

[1] = target: T1, hNectin-4-His (human Nectin-4 extracellular antigen) (Homo sapiens, UniProt Q96NY8); assay: SPR (BIAcore) affinity assay; assay type: binding
T1 construct: made in house
T1 sequence (Q96NY8 with tags, fused parts or gaps): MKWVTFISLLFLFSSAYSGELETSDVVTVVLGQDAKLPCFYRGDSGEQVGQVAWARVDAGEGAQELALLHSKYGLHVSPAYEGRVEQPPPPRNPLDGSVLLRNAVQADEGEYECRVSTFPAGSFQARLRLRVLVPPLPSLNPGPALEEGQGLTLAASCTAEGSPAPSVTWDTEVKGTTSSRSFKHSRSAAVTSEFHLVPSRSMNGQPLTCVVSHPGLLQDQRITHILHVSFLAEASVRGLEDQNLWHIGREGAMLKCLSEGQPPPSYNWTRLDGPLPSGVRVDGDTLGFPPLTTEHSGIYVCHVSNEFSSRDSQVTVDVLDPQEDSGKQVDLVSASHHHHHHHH
Description: In this study, the affinity of the antibodies for the human Nectin-4 extracellular antigen was detected by surface plasmon resonance (SPR) technique (BIAcore: GE Healthcare, T200).
Capture was performed using a Protein A chip (Cat #29127556, GE Healthcare), and 5 µg/mL antibody dilutions (in HBS-EP+(10×): GE Healthcare, Cat #BR-1006-69, with a working concentration of 1×) were directed through the experimental flow channels (Fc2 and Fc4) at a flow rate of 10 μL/min for 10 s; then, the flow rate was adjusted to 30 μL/min, the hNectin-4-His dilutions at different concentrations (0 nM, 1.23 nM, 3.7 nM, 11.1 nM, 33.3 nM, and 100 nM) were sequentially added, and simultaneously directed through the surfaces of the experimental flow channels (Fc2 and Fc4) and reference flow channels (Fc1 and Fc3) with an association time of 120 s and a dissociation time of 180 s, and finally, the chip was regenerated in Glycine 1.5.

mouse mNectin-4 protein = target: T2, mouse mNectin-4 protein (Mus musculus, UniProt Q8R007); assay: Species specificity ELISA, mouse Nectin-4; assay type: binding; conditions: in words
T2 construct: purchased ACRO NE4-M52H3
T2 sequence (Q8R007 31-508): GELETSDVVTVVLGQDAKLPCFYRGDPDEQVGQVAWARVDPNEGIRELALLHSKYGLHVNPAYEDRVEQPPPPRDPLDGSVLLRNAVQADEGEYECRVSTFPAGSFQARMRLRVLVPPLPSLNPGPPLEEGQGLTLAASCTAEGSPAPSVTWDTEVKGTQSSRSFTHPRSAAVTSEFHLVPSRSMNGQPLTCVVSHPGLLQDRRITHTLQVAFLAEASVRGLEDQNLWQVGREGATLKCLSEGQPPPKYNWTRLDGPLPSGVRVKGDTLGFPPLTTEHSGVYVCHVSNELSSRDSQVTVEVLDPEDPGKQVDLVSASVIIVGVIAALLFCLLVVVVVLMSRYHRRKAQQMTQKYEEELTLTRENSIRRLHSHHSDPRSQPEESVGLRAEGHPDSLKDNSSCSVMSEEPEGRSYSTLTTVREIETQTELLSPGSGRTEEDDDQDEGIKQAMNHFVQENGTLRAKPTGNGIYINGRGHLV
Description: The binding of different antibodies to different species of Nectin-4 proteins was detected by ELISA. hNectin-4-His, monkey cNectin-4 protein (ACRO, NE4-C52H4) and mouse mNectin-4 protein (ACRO, NE4-M52H3) were immobilized; antibodies ASG-22, 1F3, 1G8, 3A10, and 10F4 were serially diluted, and HRP-labeled anti-human-Kappa secondary antibody was added for chromogenic reaction.

ASG-22: reference antibody; heavy chain SEQ ID NO: 5, light chain SEQ ID NO: 6 [reference compound]
Endocytosis rate at 2 h (T-47D cells; Table 14): 49.8% | Endocytosis rate at 4 h (T-47D cells; Table 14): 74.1% | MFI (mean fluorescence intensity) 2 h (T-47D cells; Table 14, 37° C.): 53739.06 | MFI (mean fluorescence intensity) 4 h (T-47D cells; Table 14, 37° C.): 27694.23 | Endocytosis rate at 2 h (T-47D cells; Table 15): 35.2% | Endocytosis rate at 4 h (T-47D cells; Table 15): 35.4% | MFI (mean fluorescence intensity) 0 h (T-47D cells; Table 15, 37° C., 0 h): 58,591.2 | MFI (mean fluorescence intensity) 2 h (T-47D cells; Table 15, 37° C.): 37,973.0 | MFI (mean fluorescence intensity) 4 h (T-47D cells; Table 15, 37° C.): 37,844.0 | Ka ([1]; Table 12, association rate): 723000 M⁻¹ s⁻¹ | Kd ([1]; Table 12, dissociation rate): 0.00436 s⁻¹ | ka ([1]; Table 13): 577000 M⁻¹ s⁻¹ and 540000 M⁻¹ s⁻¹ | kd ([1]; Table 13): 0.00581 s⁻¹ and 0.0059 s⁻¹ | binding to mouse Nectin-4 (mouse mNectin-4 protein): weak binding
